Results taken from patent publication US11076594B2, “Pyrazolone compound or salt thereof, preparation method therefor, herbicide composition and use thereof” (QINGDAO KINGAGROOT CHEMICAL COMPOUNDS CO., LTD., priority 2015, dated 2021).

Legend:
Assay type in all cases: in vivo
Conditions in all cases: post-emergence spray at 4-5 leaf stage, 250 g/ha active ingredient with 450 kg/ha water, rated after 3 weeks in greenhouse
rorippa indica = assay: weed control effect in post-emergence stage (Table 1); set-up: key: Level 10: completely dead; Level 9: above 95% growth control rate; Level 8: above 90% growth control rate; Level 7: above 80% growth control rate; Level 6: above 70% growth control rate; Level 5: above 60% growth control rate; Level 4: above 50% growth control rate; Level 3: above 20% growth control rate; Level 2: 5%-20% growth control rate; Level 1: below 5% growth control rate
Description: (§1) The activity level standard of harmful plant destruction (i.e. growth control rate) is as follows: The above described growth control rate is fresh weight control rate. Monocotyledonous and dicotyledonous weed seeds and main crop seeds (i.e. wheat, corn, rice, soybean, cotton, oilseed, millet and sorghum.) were put into a plastic pot loaded with soil. Then covered with 0.5-2 cm soil, the seeds were allowed to grow in good greenhouse environment. The test plants were treated at 4-5 leaf stage 2-3 weeks after sowing. The test compounds of the invention were dissolved with acetone respectively, then added with 80 tween and diluted by certain amount of water to certain concentration. The solution was sprayed to the plants with a sprayer. Then the plants were cultured for 3 weeks in the greenhouse.

foxtail = assay: as above; set-up: key: Level 10: completely dead; Level 9: above 95% growth control rate; Level 8: above 90% growth control rate; Level 7: above 80% growth control rate; Level 6: above 70% growth control rate; Level 5: above 60% growth control rate; Level 4: above 50% growth control rate; Level 3: above 20% growth control rate; Level 2: 5%-20% growth control rate; Level 1: below 5% growth control rate
Description: as §1

echinochloa = assay: as above; set-up: key: Level 10: completely dead; Level 9: above 95% growth control rate; Level 8: above 90% growth control rate; Level 7: above 80% growth control rate; Level 6: above 70% growth control rate; Level 5: above 60% growth control rate; Level 4: above 50% growth control rate; Level 3: above 20% growth control rate; Level 2: 5%-20% growth control rate; Level 1: below 5% growth control rate
Description: as §1

Indian mallow = assay: as above; set-up: key: Level 10: completely dead; Level 9: above 95% growth control rate; Level 8: above 90% growth control rate; Level 7: above 80% growth control rate; Level 6: above 70% growth control rate; Level 5: above 60% growth control rate; Level 4: above 50% growth control rate; Level 3: above 20% growth control rate; Level 2: 5%-20% growth control rate; Level 1: below 5% growth control rate
Description: as §1

crab grass = assay: as above; set-up: key: Level 10: completely dead; Level 9: above 95% growth control rate; Level 8: above 90% growth control rate; Level 7: above 80% growth control rate; Level 6: above 70% growth control rate; Level 5: above 60% growth control rate; Level 4: above 50% growth control rate; Level 3: above 20% growth control rate; Level 2: 5%-20% growth control rate; Level 1: below 5% growth control rate
Description: as §1

bidens bipinnata = assay: as above; set-up: key: Level 10: completely dead; Level 9: above 95% growth control rate; Level 8: above 90% growth control rate; Level 7: above 80% growth control rate; Level 6: above 70% growth control rate; Level 5: above 60% growth control rate; Level 4: above 50% growth control rate; Level 3: above 20% growth control rate; Level 2: 5%-20% growth control rate; Level 1: below 5% growth control rate
Description: as §1

wheat = assay: post-emergence stage experiment, crop (Table 1)
Description: as §1

rice = assay: post-emergence stage experiment, crop (Table 1)
Description: as §1

| Structure (SMILES) | weed control effect, Rorippa indica (level) (rorippa indica) | weed control effect, Green foxtail (level) (foxtail) | weed control effect, Echinochloa (level) (echinochloa) | weed control effect, Indian mallow (level) (Indian mallow) | weed control effect, Crab grass (level) (crab grass) | weed control effect, Bidens bipinnata (level) (bidens bipinnata) | effect on crop, Wheat (level) (wheat) | effect on crop, Rice (level) (rice) |
| --- | --- | --- | --- | --- | --- | --- | --- | --- |
| Cc1nn(C)c(O)c1C(=O)c1ccc(C(F)(F)F)c(N2CCCC2=O)c1Cl [Compound 018] | 10 | 10 | 8 (Level 8: above 90% growth control rate) | 9 (Level 9: above 95% growth control rate) | 10 | 10 | 3 (Level 3: above 20% growth control rate) | – |
| CCOCCCN(C(C)=O)c1c(C(F)(F)F)ccc(C(=O)c2c(C)nn(C)c2O)c1Cl [Compound 009] | 0 | 9 (Level 9: above 95% growth control rate) | 10 | 2 (Level 2: 5%-20% growth control rate) | 1 (Level 1: below 5% growth control rate) | 5 (Level 5: above 60% growth control rate) | 0 | 5 (Level 5: above 60% growth control rate) |
| Cc1cc(C)n(-c2c(C(F)(F)F)ccc(C(=O)c3c(C)nn(C)c3O)c2Cl)n1 [Compound 093] | 0 | 2 (Level 2: 5%-20% growth control rate) | 5 (Level 5: above 60% growth control rate) | 5 (Level 5: above 60% growth control rate) | 2 (Level 2: 5%-20% growth control rate) | 5 (Level 5: above 60% growth control rate) | 0 | 0 |
| CC(=O)N(CCCOC(C)C)c1c(C(F)(F)F)ccc(C(=O)c2c(C)nn(C)c2O)c1Cl [Compound 010] | 0 | 5 (Level 5: above 60% growth control rate) | 6 (Level 6: above 70% growth control rate) | 0 | 1 (Level 1: below 5% growth control rate) | 5 (Level 5: above 60% growth control rate) | 0 | 0 |
| Cc1nn(C)c(O)c1C(=O)c1ccc(C(F)(F)F)c(-n2ccnc2)c1Cl [Compound 063] | 9 (Level 9: above 95% growth control rate) | 1 (Level 1: below 5% growth control rate) | 1 (Level 1: below 5% growth control rate) | 10 | 0 | 10 | 0 | – |
| CCCCOCCCN(C(C)=O)c1c(C(F)(F)F)ccc(C(=O)c2c(C)nn(C)c2O)c1Cl [Compound 011] | 0 | 1 (Level 1: below 5% growth control rate) | 1 (Level 1: below 5% growth control rate) | 0 | 1 (Level 1: below 5% growth control rate) | 5 (Level 5: above 60% growth control rate) | 0 | 0 |
| Cc1nn(C)c(O)c1C(=O)c1ccc(C(F)(F)F)c(-n2cc(Cl)cn2)c1Cl [Compound 095] | 0 | 1 (Level 1: below 5% growth control rate) | 1 (Level 1: below 5% growth control rate) | 0 | 1 (Level 1: below 5% growth control rate) | – | 0 | 6 (Level 6: above 70% growth control rate) |
